Values after ≈ are worked out from the molar mass of the structure shown. Active and inactive are the calls of the source. The rule behind the calls is not given here.
Legend:
ST-2 = test: […] of alkaline phosphatase activity in mouse ST-2 cells; assay type: cell-based
[1] = Metabolic stability in human liver microsomes assessed as compound remaining at 0.5 mg/ml measured after 30 mins; assay type: ADME, Microsome; details: read-out: Stability
[2] = AUC in Fischer 344 rat at 100 mg/kg, po; assay type: ADME, organism-based; set-up: dose 100 mg/kg; details: in vivo
[3] = Cmax in Fischer 344 rat at 3 mg/kg, po; assay type: ADME, organism-based; set-up: route oral, dose 3 mg/kg; details: in vivo
[4] = AUC (0 to 8 hrs) in Fischer 344 rat at 3 mg/kg, po; assay type: ADME, organism-based; set-up: time < 8 hr, route oral, dose 3 mg/kg; details: in vivo
[5] = Solubility of the compound in JP2 fluid at pH 6.8; assay type: physicochemical
CYP1A2 = target: T1, CYP1A2 (Homo sapiens, UniProt P05177); test: Inhibition of CYP1A2 (unknown origin) at 10 uM; assay type: ADME
T1 sequence (P05177 whole entry): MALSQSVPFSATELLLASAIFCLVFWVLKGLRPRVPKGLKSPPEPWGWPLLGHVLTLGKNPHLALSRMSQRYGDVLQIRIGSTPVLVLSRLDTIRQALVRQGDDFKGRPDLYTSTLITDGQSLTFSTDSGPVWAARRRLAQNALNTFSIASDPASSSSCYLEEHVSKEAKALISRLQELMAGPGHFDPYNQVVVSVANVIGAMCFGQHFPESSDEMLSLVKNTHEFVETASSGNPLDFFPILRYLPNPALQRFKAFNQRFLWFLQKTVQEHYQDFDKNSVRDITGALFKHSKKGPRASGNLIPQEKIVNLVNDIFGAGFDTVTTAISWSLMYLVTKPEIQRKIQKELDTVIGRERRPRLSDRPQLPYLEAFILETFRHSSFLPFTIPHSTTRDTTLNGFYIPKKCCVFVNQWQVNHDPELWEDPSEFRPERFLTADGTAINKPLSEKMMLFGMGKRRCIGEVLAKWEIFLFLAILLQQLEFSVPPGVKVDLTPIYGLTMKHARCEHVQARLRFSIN

CYP2C9 = CYP2C9 (Homo sapiens, UniProt P11712); test: Inhibition of CYP2C9 (unknown origin) at 10 uM; assay type: ADME
CYP2C19 = CYP2C19 (Homo sapiens, UniProt P33261); test: Inhibition of CYP2C19 (unknown origin) at 10 uM; assay type: ADME
CYP2D6 = CYP2D6 (Homo sapiens, UniProt P10635); test: Inhibition of CYP2D6 (unknown origin) at 10 uM; assay type: ADME
CYP3A4 [6] = target: T2, CYP3A4 (Homo sapiens, UniProt P08684); test: Inhibition of CYP3A4 (unknown origin) at 10 uM; assay type: ADME
CYP3A4 [7] = target: T2, CYP3A4; test: Time dependent inhibition of CYP3A4 in human liver microsomes assessed as parent compound remaining at 100 uM; assay type: ADME; details: read-out: TDI
Rattus norvegicus [8] = test: Anti-osteoporosis activity in ovariectomized rat assessed as […] in areal bone mineral density in humeral diaphysis at 1 mg/kg, po qd measured after 14 weeks; assay type: functional, organism-based
Rattus norvegicus [9] = test: Anti-osteoporosis activity in ovariectomized rat assessed as […] in areal bone mineral density in total humerus at 1 mg/kg, po qd measured after 14 weeks; assay type: functional, organism-based
Rattus norvegicus [10] = test: Anti-osteoporosis activity in ovariectomized rat assessed as […] in areal bone mineral density in humeral diaphysis at 3 mg/kg, po qd measured after 14 weeks; assay type: functional, organism-based
Rattus norvegicus [11] = test: Anti-osteoporosis activity in ovariectomized rat assessed as increase in bone strength at 1 mg/kg, po; assay type: functional, organism-based
Rattus norvegicus [12] = test: Antiosteoporotic activity against OVX-induced rat model assessed as increase in osteocalcin secretion in serum at 3 mg/kg/day; assay type: functional, organism-based
Rattus norvegicus [13] = test: Antiosteoporotic activity against OVX-induced rat model assessed as increase in deo-xypyridinoline level at 0.3 mg/kg/day; assay type: functional, organism-based
[14] = Effective permeability coefficient at pH 5 by PAMPA method; assay type: ADME; details: read-out: Peff
[15] = Effective permeability coefficient at pH 7.4 by PAMPA method; assay type: ADME; details: read-out: Peff

T2 sequence (P08684 whole entry): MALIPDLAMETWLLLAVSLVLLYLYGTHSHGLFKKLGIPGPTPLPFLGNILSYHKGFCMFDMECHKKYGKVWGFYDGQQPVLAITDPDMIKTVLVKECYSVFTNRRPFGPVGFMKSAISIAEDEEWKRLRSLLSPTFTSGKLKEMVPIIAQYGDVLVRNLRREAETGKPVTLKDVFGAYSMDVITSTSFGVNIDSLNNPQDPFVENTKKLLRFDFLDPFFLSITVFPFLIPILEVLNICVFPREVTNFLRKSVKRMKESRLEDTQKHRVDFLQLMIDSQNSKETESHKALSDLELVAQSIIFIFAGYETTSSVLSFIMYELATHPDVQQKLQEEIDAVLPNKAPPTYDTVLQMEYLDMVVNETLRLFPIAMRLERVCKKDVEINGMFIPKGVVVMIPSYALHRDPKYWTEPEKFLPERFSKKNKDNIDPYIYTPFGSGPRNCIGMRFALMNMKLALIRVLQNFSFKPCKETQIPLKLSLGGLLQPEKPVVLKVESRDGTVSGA
CYP2C19, sequence (P33261 whole entry): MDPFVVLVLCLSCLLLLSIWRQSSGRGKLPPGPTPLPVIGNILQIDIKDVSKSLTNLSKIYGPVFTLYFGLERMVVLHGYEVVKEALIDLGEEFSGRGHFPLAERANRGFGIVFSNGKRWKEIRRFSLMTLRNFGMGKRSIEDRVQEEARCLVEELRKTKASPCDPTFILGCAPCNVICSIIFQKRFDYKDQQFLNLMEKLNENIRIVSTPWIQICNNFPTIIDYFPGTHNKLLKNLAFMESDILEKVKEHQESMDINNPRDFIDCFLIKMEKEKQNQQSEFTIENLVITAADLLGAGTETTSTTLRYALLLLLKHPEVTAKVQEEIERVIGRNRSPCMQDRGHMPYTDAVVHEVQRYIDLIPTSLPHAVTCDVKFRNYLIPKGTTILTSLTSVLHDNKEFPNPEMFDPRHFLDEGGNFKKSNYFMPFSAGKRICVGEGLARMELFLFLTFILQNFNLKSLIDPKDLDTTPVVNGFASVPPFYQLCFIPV
CYP2D6, sequence (P10635 whole entry): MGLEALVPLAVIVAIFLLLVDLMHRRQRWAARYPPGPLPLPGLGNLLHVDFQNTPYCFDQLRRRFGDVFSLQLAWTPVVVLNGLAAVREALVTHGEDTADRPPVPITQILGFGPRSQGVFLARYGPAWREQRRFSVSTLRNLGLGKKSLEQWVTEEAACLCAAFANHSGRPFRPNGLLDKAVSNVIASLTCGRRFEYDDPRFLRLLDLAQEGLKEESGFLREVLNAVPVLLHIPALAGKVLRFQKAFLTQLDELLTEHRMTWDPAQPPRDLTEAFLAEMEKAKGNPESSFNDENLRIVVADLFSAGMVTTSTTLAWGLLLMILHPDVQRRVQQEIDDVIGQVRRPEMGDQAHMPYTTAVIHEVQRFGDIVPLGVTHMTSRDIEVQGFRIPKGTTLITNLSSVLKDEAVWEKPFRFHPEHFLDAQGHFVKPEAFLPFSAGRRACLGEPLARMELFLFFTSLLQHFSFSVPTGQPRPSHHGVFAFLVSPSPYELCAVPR
CYP2C9, sequence (P11712 whole entry): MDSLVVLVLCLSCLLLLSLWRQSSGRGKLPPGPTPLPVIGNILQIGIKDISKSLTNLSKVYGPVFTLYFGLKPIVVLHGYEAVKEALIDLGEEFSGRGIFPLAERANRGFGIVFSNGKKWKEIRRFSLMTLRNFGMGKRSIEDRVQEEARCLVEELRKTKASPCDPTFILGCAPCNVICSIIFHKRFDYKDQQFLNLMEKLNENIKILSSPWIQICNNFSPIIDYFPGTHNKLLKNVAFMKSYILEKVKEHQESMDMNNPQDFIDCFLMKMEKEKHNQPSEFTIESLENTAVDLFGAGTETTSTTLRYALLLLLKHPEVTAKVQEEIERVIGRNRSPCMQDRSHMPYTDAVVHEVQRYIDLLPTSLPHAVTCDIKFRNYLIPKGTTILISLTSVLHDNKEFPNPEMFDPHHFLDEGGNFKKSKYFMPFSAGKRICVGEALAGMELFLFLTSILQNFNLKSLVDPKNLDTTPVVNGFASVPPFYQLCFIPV

SMILES: COC[C@@H]1CCCN(c2ccnc3sc(C(N)=O)c(N)c23)C1
- EC200 (ST-2): 0.25 µg/mL

SMILES: CC1CCCN(c2ccnc3sc(C(N)=O)c(N)c23)C1 (stereo not drawn)
- EC200 (ST-2): 0.024 µg/mL
- remaining at 0.5 h [1]: 18%

SMILES: CN(C)C(=O)C1CCCN(c2ccnc3sc(C(N)=O)c(N)c23)C1 (stereo not drawn)
- EC200 (ST-2): > 0.3 µg/mL

SMILES: COCC1CCCN(c2ccnc3sc(C(N)=O)c(N)c23)C1 (stereo in doubt; 9g) [listing 1 of 2 here]
- remaining at 0.5 h [1]: 66%

SMILES: NC(=O)c1sc2nccc(N3CCCC(C(=O)O)C3)c2c1N (stereo not drawn)
- EC200 (ST-2): > 0.3 µg/mL
- AUC [2]: 18800 ng·h/mL

SMILES: NC(=O)c1sc2nccc(N3CCC[C@H](COCC(=O)N4CCOCC4)C3)c2c1N
- EC200 (ST-2): 0.014 µg/mL
- Cmax [3]: 217 ng/mL
- AUC(0-t) at 8 h [4]: 756 ng·h/mL

SMILES: CC1CCN(c2ccnc3sc(C(N)=O)c(N)c23)CC1
- EC200 (ST-2): 0.23 µg/mL

SMILES: CCOCCOC[C@H]1CCCN(c2cc(C)nc3sc(C(N)=O)c(N)c23)C1
- EC200 (ST-2): 0.03 µg/mL
- solubility [5]: 560 µg/mL (≈ 1430 µM)
- Cmax [3]: 357 ng/mL
- AUC(0-t) at 8 h [4]: 1350 ng·h/mL

SMILES: NC(=O)c1sc2nccc(N3CCCC(CO)C3)c2c1N (stereo not drawn)
- EC200 (ST-2): 0.076 µg/mL

SMILES: NC(=O)c1sc2nccc(N3CCCC(O)C3)c2c1N (stereo not drawn)
- EC200 (ST-2): 0.17 µg/mL

SMILES: COCCC1CCCN(c2ccnc3sc(C(N)=O)c(N)c23)C1 (stereo not drawn)
- EC200 (ST-2): 0.26 µg/mL

SMILES: COC[C@H]1CCCN(c2ccnc3sc(C(N)=O)c(N)c23)C1
- EC200 (ST-2): 0.022 µg/mL
- solubility [5]: 220 µg/mL (≈ 687 µM)
- Cmax [3]: 80.5 ng/mL
- AUC(0-t) at 8 h [4]: 227 ng·h/mL

SMILES: CN(C)c1ccnc2sc(C(N)=O)c(N)c12
- EC200 (ST-2): 0.17 µg/mL

SMILES: COCCCC1CCCN(c2ccnc3sc(C(N)=O)c(N)c23)C1 (stereo not drawn)
- EC200 (ST-2): 0.026 µg/mL

SMILES: NC(=O)c1sc2nccc(N3CCCCC3)c2c1N
- EC200 (ST-2): 0.067 µg/mL
- remaining at 0.5 h [1]: 20%
- inhibition at 10 µM (CYP1A2): 62%
- inhibition at 10 µM (CYP2C9): 4%
- inhibition at 10 µM (CYP2C19): 0%
- inhibition at 10 µM (CYP2D6): 9%
- inhibition at 10 µM (CYP3A4 [6]): 23%
- remaining at 100 µM (CYP3A4 [7]): 92%

SMILES: Cn1cnnc1COC[C@H]1CCCN(c2ccnc3sc(C(N)=O)c(N)c23)C1
- EC200 (ST-2): 0.168 µg/mL

SMILES: NC(=O)c1sc2nccc(N3CCCN(c4ccccc4)CC3)c2c1N
- EC200 (ST-2): 0.051 µg/mL
- remaining at 100 µM (CYP3A4 [7]): 28%

SMILES: CCOCC1CCCN(c2ccnc3sc(C(N)=O)c(N)c23)C1 (stereo not drawn)
- EC200 (ST-2): 0.031 µg/mL

SMILES: COCC1CCCN(c2ccnc3sc(C(N)=O)c(N)c23)C1 (racemic)
- EC200 (ST-2): 0.049 µg/mL

SMILES: Cc1noc(COC[C@H]2CCCN(c3ccnc4sc(C(N)=O)c(N)c34)C2)n1
- EC200 (ST-2): 0.017 µg/mL
- Cmax [3]: 158 ng/mL
- AUC(0-t) at 8 h [4]: 563 ng·h/mL

SMILES: COC(C)[C@H]1CCCN(c2ccnc3sc(C(N)=O)c(N)c23)C1 (stereo partly drawn)
- EC200 (ST-2): 0.146 µg/mL

SMILES: CCCOCC1CCCN(c2ccnc3sc(C(N)=O)c(N)c23)C1 (stereo not drawn)
- EC200 (ST-2): 0.095 µg/mL

SMILES: Cn1ccnc1COC[C@H]1CCCN(c2ccnc3sc(C(N)=O)c(N)c23)C1
- EC200 (ST-2): 0.019 µg/mL
- Cmax [3]: 15.1 ng/mL
- AUC(0-t) at 8 h [4]: 45 ng·h/mL

SMILES: CC(C)OC[C@H]1CCCN(c2ccnc3sc(C(N)=O)c(N)c23)C1
- EC200 (ST-2): 0.057 µg/mL

SMILES: Cc1cc(Oc2ccc(CCCC(=O)N(C)C)cc2F)c2c(N)c(C(N)=O)sc2n1
- EC200 (ST-2): 0.0005 µg/mL

SMILES: CCOCCOC[C@H]1CCCN(c2ccnc3sc(C(N)=O)c(N)c23)C1
- EC200 (ST-2): 0.024 µg/mL
- solubility [5]: 500 µg/mL (≈ 1320 µM)
- Cmax [3]: 804 ng/mL
- AUC(0-t) at 8 h [4]: 2000 ng·h/mL
- inhibition at 10 µM (CYP1A2): 33%
- inhibition at 10 µM (CYP2C9): 2%
- inhibition at 10 µM (CYP2C19): 15%
- inhibition at 10 µM (CYP2D6): 2%
- inhibition at 10 µM (CYP3A4 [6]): 10%
- remaining at 100 µM (CYP3A4 [7]): 82%
- Activity (Rattus norvegicus [8]): Active
- Activity (Rattus norvegicus [9]): Active
- Activity (Rattus norvegicus [10]): Active
- Activity (Rattus norvegicus [11]): Active
- Activity (Rattus norvegicus [12]): Active
- Activity (Rattus norvegicus [13]): Active

SMILES: NC(=O)c1sc2nccc(N3CCC[C@H](COCCO)C3)c2c1N
- EC200 (ST-2): 0.017 µg/mL
- Cmax [3]: 114 ng/mL
- AUC(0-t) at 8 h [4]: 320 ng·h/mL
- Papp [14]: 2.8 ×10⁻⁶ cm/s
- Papp [15]: 2.9 ×10⁻⁶ cm/s

SMILES: Cc1cc(N2CCC[C@H](COCc3nc(C)no3)C2)c2c(N)c(C(N)=O)sc2n1
- EC200 (ST-2): 0.026 µg/mL
- Cmax [3]: 188 ng/mL
- AUC(0-t) at 8 h [4]: 722 ng·h/mL

SMILES: Cc1nsc(COC[C@H]2CCCN(c3ccnc4sc(C(N)=O)c(N)c34)C2)n1
- EC200 (ST-2): 0.05 µg/mL

SMILES: COCC1CCCN(c2ccnc3sc(C(N)=O)c(N)c23)C1 (stereo in doubt; 9g) [listing 2 of 2 here]
- EC200 (ST-2): 0.049 µg/mL
